Among the data in PubChem BioAssay (NCI) are GI50 and TGI values, retold here.

Several values for one entry are separate records, joined by “and”; a condition that tells them apart may be missing. Equal entries are not always repeated.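 Test compounds were applied to cells in 96-well plates for 48 hours at 5 doses. Abbreviation: GI50, concentration required for 50% inhibition of growth. The concentration for full growth arrest is given as TGI.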

Test systems include ACHN renal; HOP-62 NSCLC; OVCAR-8 ovarian; RPMI-8226 leukemia; SF-268 CNS; SK-MEL-2 melanoma; SK-OV-3 ovarian; SNB-19 CNS; UO-31 renal; UACC-62 melanoma.
Common to all, as to test: NCI anticancer screen, dose series, 48 h

On to `COC(=O)c1cc(O)c2c(c1C(=O)OC)C[C@H]1[C@@H]3CC=C4C[C@@H](O)CC[C@]4(C)[C@H]3CC[C@]21C`, for which the GI50 with ACHN renal is 3.64 µM; with HOP-62 NSCLC, 2.24 µM; in the assay with OVCAR-8 ovarian, 3.33 µM; with RPMI-8226 leukemia, 1.57 µM; with SF-268 CNS, 3.13 µM; in the assay on SK-MEL-2 melanoma, 2.79 µM. For the same compound, the GI50 with SK-OV-3 ovarian was 4.75 µM; with SNB-19 CNS, 4.1 µM; in the assay on UO-31 renal it was 2.18 µM. The TGI with ACHN renal was found to be 17 µM; with HOP-62 NSCLC, 6.27 µM; with OVCAR-8 ovarian it was 16.9 µM; in the assay with RPMI-8226 leukemia, 4.96 µM; in the assay on SF-268 CNS, 13 µM; in the assay with SK-MEL-2 melanoma, 5.6 µM. Further, the results for the TGI in the assay with SK-OV-3 ovarian, with SNB-19 CNS and in the assay with UO-31 renal were 27.4 µM, 23.8 µM and 4.26 µM, respectively.

Turning to `C=C[C@@]1(O)CCCC2=C(C(=O)OCC)CC[C@]21C`, the TGI in the assay with ACHN renal, with OVCAR-8 ovarian, in the assay with RPMI-8226 leukemia, in the assay on SF-268 CNS, in the assay on SK-MEL-2 melanoma and with SK-OV-3 ovarian was greater than 100 µM throughout. Further, the TGI in the assay on SNB-19 CNS and in the assay with UO-31 renal was greater than 100 µM in each case.

With `CCc1cccc(CC)c1NC(=O)C1=C(C)NC(C)=C(C(=O)Nc2c(CC)cccc2CC)C1c1ccc([N+](=O)[O-])cc1`, the TGI was greater than 100 µM with ACHN renal; greater than 100 µM in the assay with HOP-62 NSCLC; 64.3 µM with OVCAR-8 ovarian; 37.4 µM in the assay on RPMI-8226 leukemia; greater than 100 µM in the assay with SF-268 CNS; 65.3 µM with SK-MEL-2 melanoma. The TGI in the assay on SK-OV-3 ovarian is 96.4 µM; in the assay on SNB-19 CNS, greater than 100 µM; in the assay on UO-31 renal it was greater than 100 µM.

With `COC(=O)C1[C@H](c2cc(OC)c(OC)c(OC)c2)OC(=O)C1(C(=O)OC)C(=O)c1ccc2c(c1)OCO2` (stereo partly drawn), the TGI in the assay on ACHN renal, in the assay on HOP-62 NSCLC, in the assay with OVCAR-8 ovarian, in the assay with RPMI-8226 leukemia, with SF-268 CNS and in the assay on SK-OV-3 ovarian was greater than 100 µM throughout. Further, the TGI in the assay on SNB-19 CNS, in the assay on UACC-62 melanoma and with UO-31 renal was greater than 100 µM throughout.

As for `CO[C@H](C(=O)[C@@H](O)[C@@H](C)O)[C@@H]1Cc2cc3cc(OC4CC(OC5CC(O)C(O)C(C)O5)C(O)C(C)O4)c(C)c(O)c3c(O)c2C(=O)[C@H]1OC1CC(OC2CC(OC3CC(C)(O)C(O)C(C)O3)C(O)C(C)O2)C(O)C(C)O1` (stereo partly drawn), the GI50 was 0.0237 µg/mL and 0.02 µg/mL in the assay on HOP-62 NSCLC; 0.0281 µg/mL and 0.0194 µg/mL in the assay on OVCAR-8 ovarian; 0.0265 µg/mL and 0.0214 µg/mL in the assay with RPMI-8226 leukemia; 0.0242 µg/mL and 0.0192 µg/mL in the assay with SF-268 CNS; 0.0152 µg/mL and 0.0126 µg/mL in the assay with SK-MEL-2 melanoma; 0.0437 µg/mL with SK-OV-3 ovarian. Moreover, the GI50 was 0.0238 µg/mL and 0.0179 µg/mL in the assay with SNB-19 CNS; 0.011 µg/mL in the assay with UACC-62 melanoma; 0.132 µg/mL and 0.225 µg/mL in the assay on UO-31 renal.

For `CCOC(=N)/C(=C1\OC(N)=C(c2ccc(Cl)cc2)C1=O)c1ccc(Cl)cc1`, the TGI with ACHN renal is 51 µM; in the assay on HOP-62 NSCLC it was 43.6 µM; with OVCAR-8 ovarian, 28.7 µM; with RPMI-8226 leukemia, 47.6 µM; in the assay on SF-268 CNS it was 31.3 µM; in the assay on SK-OV-3 ovarian it was greater than 100 µM. The TGI with SNB-19 CNS was 49.9 µM; in the assay on UACC-62 melanoma it was 29 µM; with UO-31 renal it was 31.3 µM.

In the case of `Cn1c(=O)c2nc(-c3ccc(Cl)cc3)oc2n(C)c1=O`, the TGI with ACHN renal, in the assay with OVCAR-8 ovarian, in the assay on RPMI-8226 leukemia, in the assay on SF-268 CNS, in the assay on SK-MEL-2 melanoma and in the assay on SNB-19 CNS was greater than 100 µM in each case. Besides, the TGI with UACC-62 melanoma and in the assay on UO-31 renal was greater than 100 µM in each case.

As to `CC1=NN(C(=O)c2ccc([N+](=O)[O-])cc2)C(=O)C1N=Nc1ccccc1C(=O)O` (stereo not drawn), the TGI in the assay on ACHN renal, in the assay with OVCAR-8 ovarian, in the assay with RPMI-8226 leukemia, with SF-268 CNS, with SK-MEL-2 melanoma and with SK-OV-3 ovarian was greater than 100 µM throughout. Also, the TGI in the assay with SNB-19 CNS, with UACC-62 melanoma and in the assay on UO-31 renal was greater than 100 µM in each case.

As to `Cc1cc(N2CCSCC2)nc(NC2CCCC(Nc3ccnc4cc(Cl)ccc34)C2)n1` (stereo not drawn), the GI50 was 2.06 µM in the assay with ACHN renal; 1.69 µM with HOP-62 NSCLC; 2.5 µM in the assay with OVCAR-8 ovarian; 1.64 µM with RPMI-8226 leukemia; 1.38 µM in the assay on SF-268 CNS; 1.98 µM in the assay with SK-OV-3 ovarian. In addition, the GI50 in the assay with SNB-19 CNS was 3.26 µM; with UACC-62 melanoma it was 1.94 µM; in the assay with UO-31 renal, 1.41 µM. Besides, the TGI amounted to 4.46 µM with ACHN renal; 3.38 µM with HOP-62 NSCLC; 5.51 µM in the assay on OVCAR-8 ovarian; 4.39 µM in the assay on RPMI-8226 leukemia; 3.13 µM in the assay on SF-268 CNS; 4.22 µM in the assay on SK-OV-3 ovarian. The TGI with SNB-19 CNS came out at 11.5 µM; in the assay on UACC-62 melanoma, 3.5 µM; in the assay with UO-31 renal it was 2.77 µM.

In the case of `Nc1ccn(C2OC(COC(=O)C34CC5CC(CC(C5)C3)C4)C(O)C2O)c(=O)n1` (stereo not drawn), the TGI in the assay on ACHN renal, in the assay with OVCAR-8 ovarian, with RPMI-8226 leukemia, in the assay with SF-268 CNS, in the assay with SK-MEL-2 melanoma and in the assay with SK-OV-3 ovarian was greater than 100 µM in each case. Also, the TGI in the assay with SNB-19 CNS, in the assay with UACC-62 melanoma and in the assay on UO-31 renal was greater than 100 µM in each case.

`N#CCN/C=C\C(=O)c1ccc(Cl)cc1`: the GI50 in the assay on HOP-62 NSCLC is 38.6 µM; with OVCAR-8 ovarian, 38.4 µM; in the assay with RPMI-8226 leukemia it was 22.6 µM; in the assay with SF-268 CNS, 26.7 µM; with SK-MEL-2 melanoma, 20 µM; with SK-OV-3 ovarian, 34.7 µM. For the same compound, the GI50 is 31.4 µM in the assay on SNB-19 CNS, 15.7 µM in the assay on UACC-62 melanoma and 42.1 µM with UO-31 renal. In addition, the TGI with HOP-62 NSCLC was greater than 100 µM; with OVCAR-8 ovarian, greater than 100 µM; with RPMI-8226 leukemia, greater than 100 µM; in the assay on SF-268 CNS it was greater than 100 µM; with SK-MEL-2 melanoma, 53.9 µM; in the assay on SK-OV-3 ovarian, greater than 100 µM. Also, the TGI was greater than 100 µM with SNB-19 CNS, 49.3 µM in the assay with UACC-62 melanoma and greater than 100 µM in the assay on UO-31 renal.

With `O=c1c2cccc3cccc(c4n1CCN=4)c32`, the TGI with ACHN renal, in the assay with HOP-62 NSCLC, in the assay on OVCAR-8 ovarian, in the assay with RPMI-8226 leukemia, in the assay on SF-268 CNS and in the assay with SK-MEL-2 melanoma was greater than 100 µM throughout. The TGI in the assay on SK-OV-3 ovarian, in the assay on UACC-62 melanoma and in the assay with UO-31 renal was greater than 100 µM throughout.
